In patent publication US20240009175A9, “TETRAZOLE DERIVATIVES” (Merck Patent GmbH, priority 2020, published 2024):

How the values were obtained:
human rec ACSS2 = human rec ACSS2 (Homo sapiens (Human), UniProt Q9NR19); assay: Biochemical activity ACSS2 assay (AMP-Glo); details: human recombinant ACSS2, AMP-Glo, 180 min at 37° C.
Source text: Biochemical Activity ACSS2 Assay (IC50 ACSS2 Biochemical)
The biochemical activity assay for ACSS2 is based on the detection of released AMP by AMP-Glo™ Assay kit (Promega, Madison). The assay is run in three steps: the enzymatic reaction in which human rec ACSS2 activates acetate with ATP and Coenzyme A as cosubstrates to acetyl-CoA thereby releasing AMP and the detection reaction of AMP by AMP Glo assay in which after the destruction of the residual ATP with AMP Glo reagent 1 produced AMP is converted to ATP that is measured in a luciferase assay system (detection reagent). The ACSS2 activity correlates with the detected luminescence signal.
The assay was performed in Perkin Elmer 384 well white Proxiplates in a total volume of 8 μl.
1 nM (fc)C-term myc tagged ACSS2 (human, recombinant, Origene, Rockville, US) and a mixture of 100 μM (fc) ATP, 100 μM (fc) Coenzyme A and 500 μM (fc) sodium acetate were incubated in a total volume of 5 μl (50 mM Hepes, 1 mM Mg-chloride, 150 mM NaCl, 1 mM DTT, 0.01% (w/v) BSA, 0.3% DMSO, pH 7.5) in the absence or presence of the test compound (10 dilution concentrations, start conc 30 μM) for 180 min at 37° C. The reaction was stopped and residual ATP destroyed by the addition of 1 μl AMP Glo reagent solution (Promega, Madison, US). After 1h incubation at room temperature 2 μl of AMP Glo detection reagent was added and the assay was incubated for 0.75 hr at room temperature. The luminescence signal was measured with an Envision multimode reader (Perkin Elmer LAS Germany GmbH) at 700 nm in luminescence mode. The full value used was the inhibitor-free reaction. The pharmacological zero value was generated by addition of ACSS2 inhibitor (Ac-CoA Synthase Inhibitor—CAS 508186-14-9-Calbiochem) in a final concentration of 5 μM. The inhibitory values (IC50) were determined using the program Assay Analyzer® from GeneData.

ACSS2 [1] = biological target: T1, ACSS2 (Homo sapiens (Human), UniProt Q9NR19); assay: Cellular assay of 14C acetate incorporation into fatty acids (IC50 ACSS2 cellular lipids); type: cell-based; details: HCT-15 cells
T1 sequence (Q9NR19 whole entry): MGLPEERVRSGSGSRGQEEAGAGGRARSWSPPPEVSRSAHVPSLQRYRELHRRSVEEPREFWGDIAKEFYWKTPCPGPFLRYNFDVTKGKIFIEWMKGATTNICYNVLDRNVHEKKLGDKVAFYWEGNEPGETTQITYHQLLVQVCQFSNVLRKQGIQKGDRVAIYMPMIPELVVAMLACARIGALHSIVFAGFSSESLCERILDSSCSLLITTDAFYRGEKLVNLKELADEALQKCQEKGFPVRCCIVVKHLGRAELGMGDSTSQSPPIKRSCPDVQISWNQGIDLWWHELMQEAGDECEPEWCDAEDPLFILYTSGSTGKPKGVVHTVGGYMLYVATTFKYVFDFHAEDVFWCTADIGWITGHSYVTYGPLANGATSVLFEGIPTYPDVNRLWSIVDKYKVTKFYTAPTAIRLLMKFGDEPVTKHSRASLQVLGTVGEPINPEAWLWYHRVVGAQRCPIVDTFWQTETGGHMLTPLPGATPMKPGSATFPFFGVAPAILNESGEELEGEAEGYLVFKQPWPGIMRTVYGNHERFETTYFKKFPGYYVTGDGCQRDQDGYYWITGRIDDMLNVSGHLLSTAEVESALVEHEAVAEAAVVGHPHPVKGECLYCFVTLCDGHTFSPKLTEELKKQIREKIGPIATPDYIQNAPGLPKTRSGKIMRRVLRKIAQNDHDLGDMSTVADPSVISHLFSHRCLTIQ
Description: Cellular Assay of ^14C Acetate Incorporation into Fatty Acids (IC50 ACSS2 Cellular Lipids)
This protocol describes a cellular assay capable to quantify endogenous fatty acid synthesis activity in the human HCT-15 cancer cell line following the incorporation of extracellularly administered radiolabeled ^14C acetate with a scintillation proximity based read out on extracted fatty acids.
HCT-15 cells were grown in RPMI 1640 (Gibco) supplemented with 2 mM glutamine, 1 mM sodium pyruvate 10 mM HEPES and 10% FCS (heat-inactivated) passaged every 2-3 days to remain a subconfluent, vital culture. A working cell bank was prepared with each aliquot containing 1×10^7 viable cells. After thawing, these cells are dilute immediately 1:20 in pre-warmed (37° C.) culture medium. Cells are collected by centrifugation at 200×g for 5 min, and the supernatant is replaced by 30 mL of fresh culture medium per aliquot to obtain a cell suspension containing 350000 cells/ml. From this cell suspension 100 μL are dispersed into each well of a collagen coated 96 well plate, (black, clear bottom, PS, F-bottom, Greiner) and culture for 24 h (37° C., 5% CO2). After incubation the culture medium is removed and the wells are washed once with 100 μL PBS++(supplemented with Mg^2+/Ca^2+, Gibco) and 50 μL assay medium (RPMI 1640+10 mM HEPES) are added to each well. Compounds serial dilutions are prepared from 10 mM stock solutions in DMSO using a fixed dilution factor (usually 1:3). After preparation of the dilution series in DMSO, the individual dilutions are further diluted in the assay medium. This working dilution is prepared such, that the concentration is 7× of the final concentration in the assay. The maximal DMSO concentration in the final assay is 0.1%.
To each well 10 μL compound working dilution or DMSO blank are added and the cells are cultured for 2 h (37° C., 5% CO2). Then 10 μL AlamarBlue reagent (Invitrogen) containing 14 μCi/mL 14C-acetate (Perkin Elmer) are added to each well (70 μl total volume) and cells are again cultured for 2 h. Cell viability is verified by measuring the AlamarBlue fluorescence (Tecan Safire, ex: 544 nm/em: 590 nm). After incubation the culture medium is removed and the wells are carefully washed once with cold 100 μL PBS++. For cell lysis and fatty acid recovery 50 μl 0.1 M NaOH and 0.1% Triton-X100 are added per well. The plate is sealed with PlateLoc (clear peelable heat seal, Agilent) and incubate at 70° C. for 16-24 h. After cooling to room temperature, the plates are centrifuged for 1 min at 1000 rpm and the plate seals are removed. For acidification 150 μL 0.1 M HCl are added to each well, mixed and 150 μL of the mixture are transferred into a 96 well FlashPlate (Perkin Elmer). The plates are sealed with TopSeal-A (Perkin Elmer). To allow for the fatty acid binding to the well surfaces the plates are incubate for 4 h at 70° C. After cooling to room temperature, the plates are centrifuged for 1 min at 1000 rpm and stored for 0.5-2h at room temperature in the dark. Radioactivity from ^14C incorporation into fatty acids in the wells is measured as CPM count in a MicroBeta scintillation counter (Perkin Elmer).

ACSS2 [2] = biological target: T1, ACSS2; assay: Cellular assay of 14C acetate incorporation into histones (IC50 ACSS2 cellular histone); type: cell-based; details: HCT-15 cells
Source text: Cellular Assay of ^14C Acetate Incorporation into Histones (IC50 ACSS2 Cellular Histone)
This protocol describes a cellular assay capable to quantify endogenous histone acetylation activity in the human HCT-15 cancer cell line following the incorporation of extracellularly administered radiolabeled ^14C acetate with a scintillation based read out on acid extracted histones.
HCT-15 cells are trypsinized, washed and suspended in DMEM culture medium supplemented with penicillin/streptomycin (100 U/mL), sodium pyruvate (1 mM), and 10% FBS
Compounds serial dilutions are prepared in 96-well V-bottom microplate from 10 mM stock solutions in DMSO. From these dilutions 0.5 μl are transferred to a fresh plate including pure DMSO as negative control. The dilutions are prepared such, that the final concentration in the assay is 1/400 of the concentration in the serial dilution. The final DMSO concentration in the assay is 0.25%.
The cell suspension is seeded at densities of 2×10^5 cells per 170 μl into individual wells of a 96 well plate each containing 0.5 μl aliquots of compound serial dilutions and are kept for 1 h in a cell incubator. To each well 30 μL of a mixture containing 0.5 mCi/mL of ^14C-acetate with full medium are added. Then, the wells are incubated for 3 hrs in the cell incubator.
Further steps of the procedure should be conducted on ice or instrumentations precooled to 4° C. Cells are sedimented in the 96-well V-bottom microplate by centrifugation (Eppendorf 5804 R) at 1200 rpm for 5 min. The supernatant is removed and the cells are washed twice with 200 μL of PBS-NaB (5 mM sodium butyrate) buffer by iterative resuspension and centrifugation. Finally, the cells are resuspended in 50 μL of TEB (PBS-NaB+0.5% Triton X-100) and left on ice for 10 minutes. After centrifugation at 2300 rpm for 10 minutes at 4° C. the supernatant is removed, the remaining pellet is suspended in 50 μL of 0.2M HCl and incubated over night at 4° C. After incubation the well plate is shaken for 2 minutes in a MTP plate shaker set to 1200 rpm and then centrifuged at 3700 rpm for 10 mins. The lysate is carefully aspirated (˜43 μL) and transferred into a white MTP plate (Greiner bio-one 65509). 90 μL of Ultima Gold XR scintillation cocktail are added and the plates are sealed with a transparent cover tape before mixing vigorously using plate shaker set to 1200 rpm. Radioactivity from ^14C incorporation in the wells is measured as CPM count in a MicroBeta Trilux luminescence counter.

CHO-K1 cells = assay: Micronucleus assay (MNT) in vitro; type: cell-based; set-up: key: A: negative, putative negative (micronuclei detected beyond threshold of 60% cyctotoxicity); B: positive; details: 24 hrs treatment, 0.2 μM to 100 μM
Description: The in vitro MNT assay is performed in CHO-K1 cells due to their stable and well-characterized karyotype, high sensitivity and suitability for a high content imaging approach. They have a basal spontaneous micronucleus frequency of 3-4%.
24 hrs after plating CHO-K1 cells are treated with test compounds for 24 hrs (in duplicates; fixed concentration ranges from 0.2 μM to 100 μM in 2-fold dilution steps). After a medium change cells are incubated for 24 hrs with Cytochalasin B to block cytokinesis and are then fixed and nuclei/micronuclei visualized with a DNA stain. Images are acquired with the Molecular Devices high content imagers IXU or IXM and are analyzed with the dedicated MetaXpress software micronucleus module. Criteria for scoring of micronuclei (MN) are the following: • diameter of the MN should be less than ⅓ of the main nucleus • MN should be separated from or marginally overlap with main nucleus (=no blebs) • MN should have similar staining as the main nucleus
At least 1000 binucleated cells are evaluated per treatment replicate. Mitomycin C is used as reference stimulator of micronucleus formation. Cytotoxicity is evaluated in parallel and defined by comparing total nuclei count in compound-treated samples to neutral control samples treated with vehicle only (1% DMSO) (100% cytotoxicity means all cells are dead or lost).
A test compound is regarded as POSITIVE if generation of micronuclei and exhibition of less than 60% cytotoxicity at the same concentration can be observed.
Compounds are scored only in the soluble concentration range.
Experimental data of the compounds shown in Table 1 in the MNT assay are shown in Table 2 below and classified in the following groups: […]

Sequence of human rec ACSS2 (Q9NR19 whole entry): as above

Row | IC50 (ACSS2 [1]) [nM] | SMILES | IC50 (human rec ACSS2) [nM] | IC50 (ACSS2 [2]) [nM] | MNT (CHO-K1 cells)
1 | 10 to 100 | Cc1nc2nc(C(O)(c3ccccc3)c3ccccc3)n(C)c2cc1-c1nnn[nH]1 [Compound 56, [1,5-dimethyl-6-(1H-1,2,3,4-tetrazol-5-yl)-1H-imidazo[4,5-b]pyridin-2-yl]diphenylmethanol] | 1 to 10 | 100 to 10000 | –
2 | – | CCn1c(C(O)(c2ccccc2)c2cccnn2)nc2nc(OC)c(-c3nnn[nH]3)cc21 (stereo not drawn) [Compound 27, [1-ethyl-5-methoxy-6-(1H-1,2,3,4-tetrazol-5-yl)-1H-imidazo[4,5-b]pyridin-2-yl](phenyl)(pyridazin-3-yl)methanol] | 1 to 10 | 1 to 10 | A
3 | – | CCc1c(C(O)(c2ccccc2)c2ccccn2)nc2cc(OC)c(-c3nnn[nH]3)cn12 (single isomer, unassigned) [Compound 10, [3-Ethyl-7-methoxy-6-(1H-tetrazol-5-yl)-imidazo[1,2-a]pyridin-2-yl]-phenyl-pyridin-2-yl-methanol] | 10 to 100 | 100 to 10000 | A
4 | – | CCn1c(C(O)(c2ccccc2)c2ccsc2)nc2nc(OC)c(-c3nnn[nH]3)cc21 (racemic) [Compound 30, [1-ethyl-5-methoxy-6-(1H-1,2,3,4-tetrazol-5-yl)-1H-imidazo[4,5-b]pyridin-2-yl](phenyl)(thiophen-3-yl)methanol] | 1 to 10 | 10 to 100 | A
5 | 1 to 10 | CCn1c(C(O)(c2ccccc2)c2ccccc2)nc2nc(F)c(-c3nnn[nH]3)cc21 [Compound 45, [1-ethyl-5-fluoro-6-(1H-1,2,3,4-tetrazol-5-yl)-1H-imidazo[4,5-b]pyridin-2-yl]diphenylmethanol] | 10 to 100 | 100 to 10000 | –
6 | – | CCn1c(C(O)(c2ccccc2)c2nccs2)nc2nc(OC)c(-c3nnn[nH]3)cc21 (single isomer, unassigned) [Compound 33, [1-ethyl-5-methoxy-6-(1H-1,2,3,4-tetrazol-5-yl)-1H-imidazo[4,5-b]pyridin-2-yl](phenyl)(1,3-thiazol-2-yl)methanol] | 10 to 100 | 10 to 100 | A

Row | SMILES | IC50 (ACSS2 [1]) [nM] | IC50 (human rec ACSS2) [nM] | IC50 (ACSS2 [2]) [nM] | MNT (CHO-K1 cells)
7 | CCn1c(C(O)(c2ccccc2)c2nccs2)nc2nc(OC)c(-c3nnn[nH]3)cc21 (racemic) [Compound 31, [1-ethyl-5-methoxy-6-(1H-1,2,3,4-tetrazol-5-yl)-1H-imidazo[4,5-b]pyridin-2-yl](phenyl)(1,3-thiazol-2-yl)methanol] | 0.01 to 1 | 1 to 10 | 1 to 10 | –
